Source: PubChem BioAssay AID248 (DTP/NCI, 2004)
Values joined by “and” are separate entries in the source; they are usually repeats but may differ in a detail not shown here. Identical values can stand only once. Inconclusive results and toxic doses are left out. Square brackets hold non-standard residues; d marks the D form. Peptide text beside a SMILES is read from it. ξ: configuration not given here. ξF = NC(Cc1ccccc1)C(=O)O

Tested on: L1210 leukemia ip in BDF1 mice, survival T/C
Experiment: NCI In Vivo Anticancer Drug Screen. Data for tumor model L1210 Leukemia (intraperitoneal) in B6D2F1 (BDF1) mice
Conditions: endpoint: mean survival time, higher = longer survival
Outline: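 In this screen, tumor-bearing mice given compound are compared to those given vehicle, and their survival values are reported as a treated-to-control quotient.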

[1] = dose: 25.0 mg/kg/injection, schedule: Q01DX009 (ip), vehicle: saline
[2] = dose: 25.0 mg/kg/injection, schedule: Q04DX003 (ip), vehicle: saline
[3] = dose: 50.0 mg/kg/injection, schedule: Q01DX009 (ip), vehicle: saline
[4] = dose: 50.0 mg/kg/injection, schedule: Q04DX003 (ip), vehicle: saline
[5] = dose: 100.0 mg/kg/injection, schedule: Q01DX009 (ip), vehicle: saline
[6] = dose: 100.0 mg/kg/injection, schedule: Q04DX003 (ip), vehicle: saline
[7] = dose: 100.0 mg/kg/injection, schedule: Q01DX001 (ip), vehicle: carboxymethylcellulose (CMC)
[8] = dose: 200.0 mg/kg/injection, schedule: Q01DX001 (ip), vehicle: carboxymethylcellulose (CMC)
[9] = dose: 200.0 mg/kg/injection, schedule: Q04DX003 (ip), vehicle: saline
[10] = dose: 400.0 mg/kg/injection, schedule: Q04DX003 (ip), vehicle: saline
[11] = dose: 50.0 mg/kg/injection, schedule: Q01DX009 (ip), vehicle: Klucel (hydroxypropylcellulose) (HPC)
[12] = dose: 100.0 mg/kg/injection, schedule: Q01DX001 (ip), vehicle: Klucel (hydroxypropylcellulose) (HPC)
[13] = dose: 100.0 mg/kg/injection, schedule: Q01DX009 (ip), vehicle: Klucel (hydroxypropylcellulose) (HPC)
[14] = dose: 200.0 mg/kg/injection, schedule: Q01DX009 (ip), vehicle: Klucel (hydroxypropylcellulose) (HPC)
[15] = dose: 100.0 mg/kg/injection, schedule: Q04DX002 (ip), vehicle: Klucel (hydroxypropylcellulose) (HPC)
[16] = dose: 200.0 mg/kg/injection, schedule: Q04DX002 (ip), vehicle: Klucel (hydroxypropylcellulose) (HPC)
[17] = dose: 400.0 mg/kg/injection, schedule: Q04DX002 (ip), vehicle: Klucel (hydroxypropylcellulose) (HPC)
[18] = dose: 100.0 mg/kg/injection, schedule: Q01DX009 (ip), vehicle: saline with Tween-80
[19] = dose: 100.0 mg/kg/injection, schedule: Q04DX003 (ip), vehicle: saline with Tween-80
[20] = dose: 200.0 mg/kg/injection, schedule: Q04DX003 (ip), vehicle: saline with Tween-80
[21] = dose: 100.0 mg/kg/injection, schedule: Q04DX003 (ip), vehicle: Klucel (hydroxypropylcellulose) (HPC)
[22] = dose: 200.0 mg/kg/injection, schedule: Q04DX003 (ip), vehicle: Klucel (hydroxypropylcellulose) (HPC)
[23] = dose: 400.0 mg/kg/injection, schedule: Q01DX009 (ip), vehicle: Klucel (hydroxypropylcellulose) (HPC)
[24] = dose: 400.0 mg/kg/injection, schedule: Q04DX003 (ip), vehicle: Klucel (hydroxypropylcellulose) (HPC)
[25] = dose: 100.0 mg/kg/injection, schedule: Q01DX001 (ip), vehicle: saline
[26] = dose: 400.0 mg/kg/injection, schedule: Q04DX003 (ip), vehicle: saline with Tween-80

`S=C(NCc1ccccc1)Nc1ncn[nH]1` was tested, and the T/C [1] was 100 % of control, the T/C [2] was 92 % of control and the T/C [3] was 94 % of control. The T/C [4] was 92 % of control, the T/C [5] was 90 % of control and the T/C [6] was 92 % of control.
In the case of `O=C(/C(=C/c1cccc(Cl)c1)c1ccccc1)c1ccc(O)cc1`, the T/C [7] is reported as 101 % of control and the T/C [8] is reported as 90 % of control.
With `OCCCc1cc(Cl)ccc1O` the T/C (dose: 50.0 mg/kg/injection, schedule: Q01DX001 (ip), vehicle: carboxymethylcellulose (CMC)) was 100 % of control, the T/C [7] was 100 % of control and the T/C [8] was 94 % of control. The T/C (dose: 400.0 mg/kg/injection, schedule: Q01DX001 (ip), vehicle: carboxymethylcellulose (CMC)) was 92 % of control.
With `CC(C)(C)OC(=O)CCN1CC1` the T/C (dose: 75.0 mg/kg/injection, schedule: Q01DX001 (ip), vehicle: saline) was 109 % of control and the T/C (dose: 150.0 mg/kg/injection, schedule: Q01DX001 (ip), vehicle: saline) was 104 % of control.
In the case of `CC(CO)NC(=O)c1ccc(N)cc1` (stereo not given), the T/C [6] is reported as 107 % of control, the T/C [9] is reported as 100 % of control and the T/C [10] is reported as 102 % of control.
For `ClCCCC#Cc1ccccc1`, the T/C [11] was 101 % of control, the T/C [12] was 90 % of control and the T/C [13] was 101 % of control. The T/C (dose: 200.0 mg/kg/injection, schedule: Q01DX001 (ip), vehicle: Klucel (hydroxypropylcellulose) (HPC)) was 98 % of control and the T/C [14] was 110 % of control.
With `CC1CC(C(=O)O)Cc2c1nc1ccccc1c2C(=O)O` (stereo not given) the T/C (dose: 100.0 mg/kg/injection, schedule: Q04DX002 (ip), vehicle: saline with Tween-80) was 100 % of control, the T/C (dose: 200.0 mg/kg/injection, schedule: Q04DX002 (ip), vehicle: saline with Tween-80) was 93 % of control and the T/C (dose: 400.0 mg/kg/injection, schedule: Q04DX002 (ip), vehicle: saline with Tween-80) was 96 % of control.
With `CC(C)OC(=O)COc1cc(F)c(Cl)cc1Cl` the T/C [15] was 102 % of control, the T/C [16] was 95 % of control and the T/C [17] was 102 % of control.
`Cn1cnc([N+](=O)[O-])c1Sc1ncnc2nc[nH]c12` was tested, and the T/C (dose: 8.0 mg/kg/injection, schedule: Q01DX Z (ip), vehicle: methylcellulose (MC)) was 109 % of control, the T/C (dose: 12.0 mg/kg/injection, schedule: Q01DX Z (ip), vehicle: methylcellulose (MC)) was 112 % of control and the T/C (dose: 17.0 mg/kg/injection, schedule: Q01DX Z (ip), vehicle: methylcellulose (MC)) was 117 % of control. For the same compound, the T/C (dose: 25.0 mg/kg/injection, schedule: Q01DX Z (ip), vehicle: methylcellulose (MC)) was 104 % of control, the T/C (dose: 62.0 mg/kg/injection, schedule: Q01DX001 (ip), vehicle: carboxymethylcellulose (CMC)) was 124 % of control and the T/C (dose: 250.0 mg/kg/injection, schedule: Q01DX001 (ip), vehicle: carboxymethylcellulose (CMC)) was 150 % of control. For the same compound, the T/C (dose: 500.0 mg/kg/injection, schedule: Q01DX001 (ip), vehicle: carboxymethylcellulose (CMC)) was 165 % of control.
In the case of `Nc1nc(N)nc(COc2ccccc2Cl)n1`, the T/C [15] is reported as 119 % of control and the T/C [16] is reported as 90 % of control.
In the case of `CCCC(O)Cc1c[nH]c(=O)[nH]c1=O` (stereo not given), the T/C (dose: 50.0 mg/kg/injection, schedule: Q01DX009 (ip), vehicle: saline with Tween-80) is reported as 103 % of control, the T/C [18] is reported as 98 % of control and the T/C [19] is reported as 95 % of control. For the same compound, the T/C [20] was 98 % of control.
With `NCC(=O)NCC(=O)NC(Cc1ccccc1)C(=O)O` (stereo not drawn) (H-Gly-Gly-[ξF]-OH) the T/C [5] was 109 % of control, the T/C [6] was 110 % of control and the T/C (dose: 200.0 mg/kg/injection, schedule: Q01DX009 (ip), vehicle: saline) was 107 % of control. For the same compound, the T/C [9] was 100 % of control, the T/C (dose: 400.0 mg/kg/injection, schedule: Q01DX009 (ip), vehicle: saline) was 101 % of control and the T/C [10] was 101 % of control.
`O=C(NC(=S)Nc1cccc(Cl)c1)c1ccc(Cl)cc1Cl` was tested, and the T/C [12] was 87 % of control, the T/C [13] was 87 % of control and the T/C [15] was 115 % of control. For the same compound, the T/C [21] was 97 % of control, the T/C [14] was 97 % of control and 87 % of control and the T/C [16] was 93 % of control. The T/C [22] was 103 % of control, the T/C [23] was 87 % of control and 92 % of control and the T/C [17] was 94 % of control. For the same compound, the T/C [24] was 108 % of control.
For `CCCCC(CC)C(O)C(C)C(C)O` (stereo not given), the T/C [13] was 97 % of control, the T/C [21] was 101 % of control and the T/C [14] was 102 % of control. The T/C [22] was 98 % of control, the T/C [23] was 100 % of control and the T/C [24] was 95 % of control.
`CCCCC#CCl` was tested, and the T/C [25] was 101 % of control, the T/C (dose: 200.0 mg/kg/injection, schedule: Q01DX001 (ip), vehicle: saline) was 94 % of control and the T/C (dose: 400.0 mg/kg/injection, schedule: Q01DX001 (ip), vehicle: saline) was 94 % of control.
For `N#C/C(=C\c1ccccn1)c1ccc(Cl)cc1`, the T/C (dose: 100.0 mg/kg/injection, schedule: Q01DX001 (ip), vehicle: other) was 95 % of control, the T/C (dose: 200.0 mg/kg/injection, schedule: Q01DX001 (ip), vehicle: other) was 92 % of control and the T/C (dose: 400.0 mg/kg/injection, schedule: Q01DX001 (ip), vehicle: other) was 94 % of control.
In the case of `COc1cc(C=C(C#N)C#N)ccc1O`, the T/C (dose: 12.5 mg/kg/injection, schedule: Q01DX009 (ip), vehicle: Klucel (hydroxypropylcellulose) (HPC)) is reported as 103 % of control and the T/C (dose: 25.0 mg/kg/injection, schedule: Q01DX009 (ip), vehicle: Klucel (hydroxypropylcellulose) (HPC)) is reported as 97 % of control.
With `NNC(=O)CNc1cccc(Cl)c1F` the T/C (dose: 25.0 mg/kg/injection, schedule: Q04DX002 (ip), vehicle: Klucel (hydroxypropylcellulose) (HPC)) was 92 % of control, the T/C (dose: 50.0 mg/kg/injection, schedule: Q04DX002 (ip), vehicle: Klucel (hydroxypropylcellulose) (HPC)) was 92 % of control and the T/C [15] was 122 % of control.
For `N=C(N)c1cccc(NC(=O)c2ccc(C(=O)Nc3cccc(C(=N)N)c3)c(N)c2)c1`, the T/C (dose: 5.0 mg/kg/injection, schedule: Q01DX Z (ip), vehicle: carboxymethylcellulose (CMC)) was 106 % of control, the T/C (dose: 10.0 mg/kg/injection, schedule: Q01DX Z (ip), vehicle: carboxymethylcellulose (CMC)) was 104 % of control and the T/C (dose: 20.0 mg/kg/injection, schedule: Q01DX Z (ip), vehicle: carboxymethylcellulose (CMC)) was 120 % of control.
`NS(=O)(=O)c1ccc(NC2OCC(O)C(O)C2O)cc1` (stereo not given) was tested, and the T/C [19] was 98 % of control, the T/C [20] was 100 % of control and the T/C [26] was 102 % of control.
`C[S+](C)C` was tested, and the T/C (dose: 12.0 mg/kg/injection, schedule: Q01DX009 (ip), vehicle: saline) was 104 % of control, the T/C [1] was 93 % of control and 100 % of control and the T/C [2] was 93 % of control. For the same compound, the T/C [11] was 91 % of control, the T/C [3] was 100 % of control and 98 % of control and the T/C [4] was 98 % of control. The T/C [25] was 96 % of control, the T/C [5] was 90 % of control and the T/C [6] was 97 % of control and 88 % of control.
`CCCCC(CC)COP(OCC(CC)CCCC)OCC(CC)CCCC` (stereo not given) was tested, and the T/C [19] was 96 % of control, the T/C [20] was 100 % of control and the T/C [26] was 96 % of control.
For `CCN(CC)CCNc1cccc2sc3ccccc3c(=O)c12`, the T/C [11] was 92 % of control, the T/C [13] was 94 % of control and the T/C [14] was 94 % of control. For the same compound, the T/C [23] was 100 % of control.
For `CCOC(=O)C(Cc1ccccc1)NP(=O)(OCCCl)OCCCl` (stereo not given), the T/C [13] was 104 % of control, the T/C [21] was 95 % of control and the T/C [14] was 96 % of control. The T/C [22] was 95 % of control, the T/C [23] was 101 % of control and the T/C [24] was 87 % of control.
For `Brc1csc2ncccc12`, the T/C [11] was 102 % of control, the T/C [13] was 101 % of control and the T/C [21] was 97 % of control. For the same compound, the T/C [14] was 96 % of control and the T/C [22] was 100 % of control.
With `CCCSCCCC(=O)O` the T/C [13] was 88 % of control and the T/C [14] was 97 % of control.
In the case of `c1ccc(-c2c3ccccc3c(-c3ccccc3)c3cc4ccccc4cc23)cc1`, the T/C [15] is reported as 95 % of control, the T/C [16] is reported as 98 % of control and the T/C [17] is reported as 92 % of control.
With `CC(=O)Nc1ccc(NC(=O)Nc2cccc(F)c2)cc1` the T/C [18] was 92 % of control, the T/C (dose: 200.0 mg/kg/injection, schedule: Q01DX009 (ip), vehicle: saline with Tween-80) was 89 % of control and the T/C (dose: 400.0 mg/kg/injection, schedule: Q01DX009 (ip), vehicle: saline with Tween-80) was 92 % of control.
